Key:
sensitive strain of MTB = experiment: Murine model of pulmonary tuberculosis, mice infected with sensitive strain; assay type: in vivo, Mycobacterium tuberculosis; details: for dose giving 2 log reduction in the organs: animals infected with sensitive strain
in vivo [1] = details: dog, po, 12.5 mg
Procedure: (§2) Preliminary Pharmacokinetics studies of the compound of formula (I) was performed in mice and dog to determine bioavailibility and serum levels achieved and maintained by the compounds.

[2] = Pharmacokinetics of the combination with rifampicin and pyrazinamide in mice; details: mouse, in vivo, po; for half-life: T½
in vivo [3] = details: mouse, po, 25 mg/kg
[4] = system: bacterial strains used in the Ames Mutagenicity test; experiment: Ames Mutagenicity test; assay type: cell-based; details: all the bacterial strains used
[5] = Acute toxicity by oral route in rats; details: rat, in vivo
Procedure: (§1) Acute toxicity of the compound of formula (I) was determined in rodents by oral route.

[6] = Preliminary pharmacokinetics of compound of formula (I) in dog; details: serum, 12.5 mg
Procedure: as §2

[7] = Acute toxicity by oral route in mice; details: mouse, in vivo
Procedure: as §1

[8] = Preliminary pharmacokinetics of compound of formula (I) in mice; details: mouse, in vivo
Procedure: as §2

[9] = combination study, one month, doses mg/kg: (I) 25.0 where present, INH 25.0, RIF 20.0, PYR 150.0, ETH 100.0
[10] = combination study, three months, doses mg/kg: (I) 25.0 where present, INH 25.0, RIF 20.0, PYR 150.0, ETH 100.0
[11] = combination study, two months, doses mg/kg: (I) 25.0 where present, INH 25.0, RIF 20.0, PYR 150.0, ETH 100.0
[12] = monotherapy 12.5 mg/kg, 8 Weeks Treatment (two months)
[13] = monotherapy 12.5 mg/kg, 12 Weeks Treatment (three months)
[14] = monotherapy 12.5 mg/kg, one month of treatment
[15] = monotherapy 25 mg/kg, 8 Weeks Treatment (two months)
[16] = monotherapy 25 mg/kg, 12 Weeks Treatment (three months)
[17] = monotherapy 25 mg/kg, one month of treatment
[18] = monotherapy 50 mg/kg, 8 Weeks Treatment (two months)
[19] = monotherapy 50 mg/kg, 12 Weeks Treatment (three months)
[20] = monotherapy 50 mg/kg, one month of treatment
[21] = 12.5 mg/kg, (I) alone 12.5 mg/kg
[22] = given together: (I) 12.5 + RIF 20.0 + PYR 150.0 mg/kg
[23] = given together without (I): RIF 20.0 + PYR 150.0 mg/kg

NNC(=O)c1ccncc1 [Isoniazid]
dose giving 2 log reduction in the organs (sensitive strain of MTB): ≥ 25 mg/kg | Mean Log10CFU in organs of mice infected with sensitive strain of MTB, Lung (sensitive strain of MTB; [9]): 3.20 ± 0.45 Log10CFU | Mean Log10CFU in organs of mice infected with sensitive strain of MTB, Spleen (sensitive strain of MTB; [9]): 2.78 ± 0.30 Log10CFU | Mean Log10CFU in organs of mice infected with sensitive strain of MTB, Lung (sensitive strain of MTB; [10]): 1.20 ± 0.98 Log10CFU | Mean Log10CFU in organs of mice infected with sensitive strain of MTB, Spleen (sensitive strain of MTB; [10]): 1.35 ± 1.09 Log10CFU | Mean Log10CFU in organs of mice infected with sensitive strain of MTB, Lung (sensitive strain of MTB; [11]): 1.91 ± 0.9 Log10CFU | Mean Log10CFU in organs of mice infected with sensitive strain of MTB, Spleen (sensitive strain of MTB; [11]): 2.43 ± 0.39 Log10CFU | Mean Log10CFU in organs of mice infected with sensitive strain of MTB, Lung (sensitive strain of MTB; [12]): 3.9 ± 0.45 Log10CFU | Mean Log10CFU in organs of mice infected with sensitive strain of MTB, Spleen (sensitive strain of MTB; [12]): 3.73 ± 0.52 Log10CFU | Mean Log10CFU in organs of mice infected with sensitive strain of MTB, Lung (sensitive strain of MTB; [13]): 3.94 ± 0.28 Log10CFU | Mean Log10CFU in organs of mice infected with sensitive strain of MTB, Spleen (sensitive strain of MTB; [13]): 3.9 ± 0.37 Log10CFU | Mean Log10CFU in organs of mice infected with sensitive strain of MTB, Lung (sensitive strain of MTB; [14]): 4.56 ± 0.24 Log10CFU | Mean Log10CFU in organs of mice infected with sensitive strain of MTB, Spleen (sensitive strain of MTB; [14]): 4.93 ± 0.42 Log10CFU | Mean Log10CFU in organs of mice infected with sensitive strain of MTB, Lung (sensitive strain of MTB; [15]): 3.01 ± 0.68 Log10CFU | Mean Log10CFU in organs of mice infected with sensitive strain of MTB, Spleen (sensitive strain of MTB; [15]): 2.68 ± 0.89 Log10CFU | Mean Log10CFU in organs of mice infected with sensitive strain of MTB, Lung (sensitive strain of MTB; [16]): 3.06 ± 0.83 Log10CFU | Mean Log10CFU in organs of mice infected with sensitive strain of MTB, Spleen (sensitive strain of MTB; [16]): 2.41 ± 0.69 Log10CFU | Mean Log10CFU in organs of mice infected with sensitive strain of MTB, Lung (sensitive strain of MTB; [17]): 3.19 ± 0.6 Log10CFU | Mean Log10CFU in organs of mice infected with sensitive strain of MTB, Spleen (sensitive strain of MTB; [17]): 3.08 ± 0.44 Log10CFU | Mean Log10CFU in organs of mice infected with sensitive strain of MTB, Lung (sensitive strain of MTB; [18]): 2.45 ± 0.60 Log10CFU | Mean Log10CFU in organs of mice infected with sensitive strain of MTB, Spleen (sensitive strain of MTB; [18]): 2.30 ± 0.38 Log10CFU | Mean Log10CFU in organs of mice infected with sensitive strain of MTB, Lung (sensitive strain of MTB; [19]): 2.07 ± 0.33 Log10CFU | Mean Log10CFU in organs of mice infected with sensitive strain of MTB, Spleen (sensitive strain of MTB; [19]): 2.68 ± 0.36 Log10CFU | Mean Log10CFU in organs of mice infected with sensitive strain of MTB, Lung (sensitive strain of MTB; [20]): 2.97 ± 0.46 Log10CFU | Mean Log10CFU in organs of mice infected with sensitive strain of MTB, Spleen (sensitive strain of MTB; [20]): 2.89 ± 0.27 Log10CFU

Cc1c(CN2CCN(c3cccc(C(F)(F)F)c3)CC2)cc(-c2ccccc2)n1NC(=O)c1ccncc1 [Compound of formula (I)]
dose giving 2 log reduction in the organs (sensitive strain of MTB): 12.5 mg/kg | Mean Log10CFU in organs of mice infected with sensitive strain of MTB, Lung (sensitive strain of MTB; [9]): 3.11 ± 0.38 Log10CFU | Mean Log10CFU in organs of mice infected with sensitive strain of MTB, Spleen (sensitive strain of MTB; [9]): 2.42 ± 0.4 Log10CFU | Mean Log10CFU in organs of mice infected with sensitive strain of MTB, Lung (sensitive strain of MTB; [10]): 0.82 ± 0.91 Log10CFU | Mean Log10CFU in organs of mice infected with sensitive strain of MTB, Spleen (sensitive strain of MTB; [10]): 1.09 ± 0.83 Log10CFU | Mean Log10CFU in organs of mice infected with sensitive strain of MTB, Lung (sensitive strain of MTB; [11]): 1.86 ± 0.94 Log10CFU | Mean Log10CFU in organs of mice infected with sensitive strain of MTB, Spleen (sensitive strain of MTB; [11]): 2.60 ± 0.45 Log10CFU | Mean Log10CFU in organs of mice infected with sensitive strain of MTB, Lung (sensitive strain of MTB; [12]): 3.44 ± 0.69 Log10CFU | Mean Log10CFU in organs of mice infected with sensitive strain of MTB, Spleen (sensitive strain of MTB; [12]): 2.75 ± 0.63 Log10CFU | Mean Log10CFU in organs of mice infected with sensitive strain of MTB, Lung (sensitive strain of MTB; [13]): 2.76 ± 0.53 Log10CFU | Mean Log10CFU in organs of mice infected with sensitive strain of MTB, Spleen (sensitive strain of MTB; [13]): 2.68 ± 0.27 Log10CFU | Mean Log10CFU in organs of mice infected with sensitive strain of MTB, Lung (sensitive strain of MTB; [14]): 2.5 ± 0.35 Log10CFU | Mean Log10CFU in organs of mice infected with sensitive strain of MTB, Spleen (sensitive strain of MTB; [14]): 2.89 ± 0.32 Log10CFU | Mean Log10CFU in organs of mice infected with sensitive strain of MTB, Lung (sensitive strain of MTB; [15]): 2.89 ± 0.73 Log10CFU | Mean Log10CFU in organs of mice infected with sensitive strain of MTB, Spleen (sensitive strain of MTB; [15]): 2.37 ± 0.68 Log10CFU | Mean Log10CFU in organs of mice infected with sensitive strain of MTB, Lung (sensitive strain of MTB; [16]): 1.71 ± 1.24 Log10CFU | Mean Log10CFU in organs of mice infected with sensitive strain of MTB, Spleen (sensitive strain of MTB; [16]): 1.63 ± 0.98 Log10CFU | Mean Log10CFU in organs of mice infected with sensitive strain of MTB, Lung (sensitive strain of MTB; [17]): 2.3 ± 0.63 Log10CFU | Mean Log10CFU in organs of mice infected with sensitive strain of MTB, Spleen (sensitive strain of MTB; [17]): 2.42 ± 0.15 Log10CFU | Mean Log10CFU in organs of mice infected with sensitive strain of MTB, Lung (sensitive strain of MTB; [18]): 2.20 ± 0.56 Log10CFU | Mean Log10CFU in organs of mice infected with sensitive strain of MTB, Spleen (sensitive strain of MTB; [18]): 2.17 ± 0.46 Log10CFU | Mean Log10CFU in organs of mice infected with sensitive strain of MTB, Lung (sensitive strain of MTB; [19]): 1.46 ± 1.06 Log10CFU | Mean Log10CFU in organs of mice infected with sensitive strain of MTB, Spleen (sensitive strain of MTB; [19]): 1.56 ± 1.12 Log10CFU | Mean Log10CFU in organs of mice infected with sensitive strain of MTB, Lung (sensitive strain of MTB; [20]): 2.1 ± 0.36 Log10CFU | Mean Log10CFU in organs of mice infected with sensitive strain of MTB, Spleen (sensitive strain of MTB; [20]): 2.28 ± 0.38 Log10CFU | half-life (in vivo [1]): 5.07 h | AUC [2, 21]: 2210 ng·h/mL | Cmax [2, 21]: 660 ng/mL | Tmax [2, 21]: 1.5 h | half-life [2, 21]: 5.34 h | AUC [2, 22]: 36500 ng·h/mL | Cmax [2, 22]: 7580 ng/mL | Tmax [2, 22]: 2.12 h | half-life [2, 22]: 6.73 h | AUC (in vivo [3]): 6880 ng·h/mL | Cmax (in vivo [3]): 2680 ng/mL | Tmax (in vivo [3]): 2 h | half-life (in vivo [3]): 3.41 h | mutagenicity in the Ames Mutagenicity test [4]: non mutagenic | LD50 [5]: 793 mg/kg | AUC(0-t) ([6]; iv): 20000 ng·h/mL | Cmax ([6]; iv): 8650 ng/mL | Tmax ([6]; iv): 3.48 h | AUC(0-t) ([6]; po): 10600 ng·h/mL | Cmax ([6]; po): 3380 ng/mL | Tmax ([6]; po): 0.75 h | bioavailability ([6]; po): 56.4% | LD50 [7]: 700 mg/kg | AUC(0-t) ([8]; po, 25 mg): 6880 ng·h/mL | Cmax ([8]; po, 25 mg): 2680 ng/mL | Tmax ([8]; po, 25 mg): 2 h | half-life ([8]; po, 25 mg): 3.41 h | AUC(0-t) ([8]; Mice, 12.5 mg (Oral), read-out: AUClast): 2210 ng·h/mL | Cmax ([8]; Mice, 12.5 mg (Oral), read-out: Cmax): 660 ng/mL | half-life ([8]; Mice, 12.5 mg (Oral), read-out: T1/2 (converted)): 5.34 h | Tmax ([8]; Mice, 12.5 mg (Oral), read-out: Tmax): 1.5 h

CO[C@H]1/C=C/O[C@@]2(C)Oc3c(C)c(O)c4c(O)c(c(/C=N/N5CCN(C)CC5)c(O)c4c3C2=O)NC(=O)/C(C)=C\C=C\[C@H](C)[C@H](O)[C@@H](C)[C@@H](O)[C@@H](C)[C@H](OC(C)=O)[C@@H]1C [Rifampicin]
Mean Log10CFU in organs of mice infected with sensitive strain of MTB, Lung (sensitive strain of MTB; [9]): 2.75 ± 0.36 Log10CFU | Mean Log10CFU in organs of mice infected with sensitive strain of MTB, Spleen (sensitive strain of MTB; [9]): 2.78 ± 0.42 Log10CFU | Mean Log10CFU in organs of mice infected with sensitive strain of MTB, Lung (sensitive strain of MTB; [10]): 0.84 ± 1.10 Log10CFU | Mean Log10CFU in organs of mice infected with sensitive strain of MTB, Spleen (sensitive strain of MTB; [10]): 1.21 ± 0.83 Log10CFU | Mean Log10CFU in organs of mice infected with sensitive strain of MTB, Lung (sensitive strain of MTB; [11]): 1.84 ± 0.95 Log10CFU | Mean Log10CFU in organs of mice infected with sensitive strain of MTB, Spleen (sensitive strain of MTB; [11]): 2.40 ± 0.7 Log10CFU | AUC [2, 23]: 148000 ng·h/mL | AUC [2, 22]: 195000 ng·h/mL | Cmax [2, 23]: 15200 ng/mL | Cmax [2, 22]: 19300 ng/mL | Tmax [2, 23]: 2.3 h | Tmax [2, 22]: 3.25 h

NC(=O)c1cnccn1 [PYR, Pyrazinamide]
AUC [2, 23]: 649000 ng·h/mL | AUC [2, 22]: 477000 ng·h/mL | Cmax [2, 23]: 138000 ng/mL | Cmax [2, 22]: 146000 ng/mL | Tmax [2, 23]: 1.5 h | Tmax [2, 22]: 1 h | half-life [2, 23]: 2.09 h | half-life [2, 22]: 2.05 h

From patent US7491721B2, “Antimycobacterial pharmaceutical composition” (priority 2004, dated 2009)
